Laboratory results: patent publication US20080102120A1, “Solid Pharmaceutical Composition Comprising Valsartan” (priority 2004, published 2008)

Experiment: Particle size of valsartan by laser light scattering (Malvern Mastersizer MS 2000, suspension in vegetable oil)
Format: physicochemical
Details: for average particle size: Malvern Mastersizer MS 2000 software; for % of particles in the range of 0.02-50 μm: range 0.02-50 μm; for % of particles in the range of 0.02-100 μm: range 0.02-100 μm; for size that 50% of particles were larger than (D50): volume diameter
Excerpt: The term “particle size” as used herein refers to the volume diameter of valsartan particles, as determined by laser light scattering using a Malvern-Mastersizer Apparatus MS 2000. D50 means that 50% of particles (V/V) have a higher volume diameter than the indicated value. The term “valsartan particle” means a particle that contains valsartan or, preferably, a particle that essentially or completely consists of valsartan. The particles to be subjected to the particle size measurement are first suspended in vegetable oil (i.e. sunflower oil) and then subjected to a size determination in a Malvern Mastersizer MS 2000 instrument. Usually, 100-800 mg of substance are dispersed in 5-8 ml of vegetable oil. No solubilizers or surfactants are used. According to manufacturer's information, the Malvern Mastersizers allow for a measurement of particle size distributions in the range of 20 nm to 2000 μm, with a precision of better than 0.5%. Particle sizes are determined by measuring the angular distribution of laser light scattered by a homogeneous suspension of particles. The size distribution is determined from the light scattering data using the theory of light scattering developed by Gustav Mie. The following examples illustrate the invention and are not intended to restrict the scope of the invention in any way. In the following examples, the water content was determined as loss on drying on a Mettler Toledo HR73 halogen moisture analyzer. The particle size was determined in a Malvern Mastersizer MS 2000, using a suspension of valsartan in vegetable oil (sunflower oil of Oljarica Kranj).

| SMILES | size that 10% of particles were larger than [μm] | size that 10% of particles were smaller than [μm] | average particle size [μm] | Particle size distribution, Volume % in range 0.01-2 μm [Volume %] | % of particles in the range of 0.02-50 μm [%] | % of particles in the range of 0.02-100 μm [%] | Particle size distribution, Volume % in range 2-5 μm [Volume %] | Particle size distribution, Volume % in range 5-10 μm [Volume %] | Particle size distribution, Volume % in range 10-20 μm [Volume %] | Particle size distribution, Volume % in range 20-50 μm [Volume %] | Particle size distribution, Volume % in range 50-100 μm [Volume %] | Particle size distribution, Volume % in range 100-150 μm [Volume %] | Particle size distribution, Volume % in range 150-800 μm [Volume %] | size that 50% of particles were larger than (D50) [μm] | % of particles in the range of 0.02-56 μm (range 0.02-56 μm as printed) [%] |
| --- | --- | --- | --- | --- | --- | --- | --- | --- | --- | --- | --- | --- | --- | --- | --- |
| CCCCC(=O)N(Cc1ccc(-c2ccccc2-c2nnn[nH]2)cc1)[C@H](C(=O)O)C(C)C [valsartan (A), N-(1-oxopentyl)-N-{4-[2-(1H-tetrazole-5-yl)phenyl]-benzyl}-L-valine] | 304.3 | 10.3 | 123 | 0.9 | 38.1 | 58.1 | 3.3 | 5.5 | 9.3 | 19.1 | 20.0 | 12.4 | 29.4 | 76.6 | – |
| CCCCC(=O)N(Cc1ccc(-c2ccccc2-c2nnn[nH]2)cc1)[C@H](C(=O)O)C(C)C [valsartan (B), N-(1-oxopentyl)-N-{4-[2-(1H-tetrazole-5-yl)phenyl]-benzyl}-L-valine] | 460.8 | 34.7 | 219 | 0.7 | 15.0 | 30.0 | 1.2 | 1.0 | 2.6 | 9.5 | 15.0 | 13.1 | 56.4 | 179.1 | – |
| CCCCC(=O)N(Cc1ccc(-c2ccccc2-c2nnn[nH]2)cc1)[C@H](C(=O)O)C(C)C [valsartan (C), N-(1-oxopentyl)-N-{4-[2-(1H-tetrazole-5-yl)phenyl]-benzyl}-L-valine] | 136.2 | 8.2 | 65 | 1.4 | – | 78.5 | 4.8 | 5.7 | 9.4 | 25.9 | 31.3 | 14.1 | 7.3 | 53.4 | 47.2 |
